Reference: patent US20240158446A1, “CYCLIC COMPOUND HAVING SELECTIVE INHIBITORY ACTION ON KRAS OVER HRAS AND NRAS” (CHUGAI SEIYAKU KABUSHIKI KAISHA, priority 2021, published 2024)

Assays:
[1] = system: human lung cancer strain NCI-H441;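 also: cell proliferation inhibition after four days measured by CellTiter-Glo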
[2] = target: GDP-bound HRAS wild-type protein (Homo sapiens, UniProt P01112); assay: Binding to HRAS by surface plasmon resonance (SPR), Single Cycle Kinetics; conditions: SPR; GDP-bound HRAS wild-type protein vs GDP-bound KRAS wild-type protein; KD ratio class
Sequence of GDP-bound HRAS wild-type protein (P01112 whole entry): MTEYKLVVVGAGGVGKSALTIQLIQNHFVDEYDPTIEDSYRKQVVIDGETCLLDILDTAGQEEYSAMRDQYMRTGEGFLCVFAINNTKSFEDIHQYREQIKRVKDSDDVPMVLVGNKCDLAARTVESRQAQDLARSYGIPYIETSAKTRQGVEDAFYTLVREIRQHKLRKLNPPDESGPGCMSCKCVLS

[3] = target: GDP-bound KRAS wild-type protein (Homo sapiens, UniProt P01116); assay: Binding to KRAS by surface plasmon resonance (SPR), Single Cycle Kinetics; conditions: SPR, Single Cycle Kinetics, 1:1 binding model; GDP-bound KRAS wild-type protein; read-out: KRAS KD
Sequence of GDP-bound KRAS wild-type protein (P01116 whole entry): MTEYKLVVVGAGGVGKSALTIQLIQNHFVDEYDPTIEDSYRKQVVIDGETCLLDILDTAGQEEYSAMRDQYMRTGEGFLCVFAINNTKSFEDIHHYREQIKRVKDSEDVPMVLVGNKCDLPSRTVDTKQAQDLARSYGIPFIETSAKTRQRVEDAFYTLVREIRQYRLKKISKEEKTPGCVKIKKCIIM

[4] = target: GDP-bound NRAS wild-type protein (Homo sapiens, UniProt P01111); assay: Binding to NRAS by surface plasmon resonance (SPR), Single Cycle Kinetics; conditions: SPR; GDP-bound NRAS wild-type protein vs GDP-bound KRAS wild-type protein; KD ratio class
Sequence of GDP-bound NRAS wild-type protein (P01111 whole entry): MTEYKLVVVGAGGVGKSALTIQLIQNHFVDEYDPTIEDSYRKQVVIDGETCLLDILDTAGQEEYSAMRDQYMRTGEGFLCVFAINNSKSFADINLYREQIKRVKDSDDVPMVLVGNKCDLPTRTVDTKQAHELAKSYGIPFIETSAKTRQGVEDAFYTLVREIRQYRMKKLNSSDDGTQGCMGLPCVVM

Compound | IC50 [1] | HRAS/KRAS (ratio of KD value for HRAS to KD value for KRAS) [2] | Kd [3] | NRAS/KRAS (ratio of KD value for NRAS to KD value for KRAS) [4]
CC[C@H](C)[C@@H]1NC(=O)[C@H](CC)N(C)C(=O)C[C@@H](C(=O)N(C)C)N(C)C(=O)[C@H](C2CCCC2)N(C)C(=O)C2(CCCC2)NC(=O)[C@@H]2CCCN2C(=O)[C@H](CCc2cc(F)c(C(F)(F)F)c(F)c2)NC(=O)CN(C)C(=O)[C@H](Cc2ccc(C(F)(F)F)cc2)N2CC/C=C\C[C@@H](C2=O)N(C)C(=O)CN(C)C1=O [PP1273, (2S,8S,14S,20S,23S,27S,30S,36S,38Z)-20-cyclopentyl-8-[2-[3,5-difluoro-4-(trifluoromethyl)phenyl]ethyl]-27-ethyl-N,N,4,19,22,26,32,35-octamethyl-30-[(1S)-1-methylpropyl]-3,6,9,15,18,21,25,28,31,34,42-undecaoxo-2-[[4-(trifluoromethyl)phenyl]methyl]spiro[1,4,7,10,16,19,22,26,29,32,35-undecazatricyclo[34.5.1.0^10,14]dotetracont-38-ene-17,1′-cyclopentane]-23-carboxamide] | 16.5 nM | B (a compound having 3 or more and less than 10 is denoted as B) | 0.12 nM | A (a compound having 10 or more and less than 20 is denoted as A)
CCO[C@@H]1C[C@H]2C(=O)NC3(CC(F)(F)C3)C(=O)N(C)[C@@H](C3CCCC3)C(=O)N(C)[C@H](C(=O)N(C)C)CC(=O)N(C)[C@@H](CC)C(=O)N[C@@H]([C@@H](C)CC)C(=O)N(C)CC(=O)N(C)[C@H]3C/C=C\CCN(C3=O)[C@@H](Cc3ccc(C(F)(F)F)cc3)C(=O)N(C)CC(=O)N[C@@H](CCc3cc(F)c(C(F)(F)F)c(F)c3)C(=O)N2C1 [PP1274, (2S,8S,12R,14S,20S,23S,27S,30S,36S,38Z)-20-cyclopentyl-8-[2-[3,5-difluoro-4-(trifluoromethyl)phenyl]ethyl]-12-ethoxy-27-ethyl-1′,1′-difluoro-N,N,4,19,22,26,32,35-octamethyl-30-[(1S)-1-methylpropyl]-3,6,9,15,18,21,25,28,31,34,42-undecaoxo-2-[[4-(trifluoromethyl)phenyl]methyl]spiro[1,4,7,10,16,19,22,26,29,32,35-undecazatricyclo[34.5.1.0^10,14]dotetracont-38-ene-17,3′-cyclobutane]-23-carboxamide] | 7.5 nM | A (a compound having 10 or more and less than 20 is denoted as A) | 0.032 nM | A (a compound having 10 or more and less than 20 is denoted as A)
CCO[C@@H]1C[C@H]2C(=O)NC3(CC(C)(C)C3)C(=O)N(C)[C@@H](C3CCCC3)C(=O)N(C)[C@H](C(=O)N(C)C)CC(=O)N(C)[C@@H](CC)C(=O)N[C@@H]([C@@H](C)CC)C(=O)N(C)CC(=O)N(C)[C@H]3C/C=C\CCN(C3=O)[C@@H](Cc3ccc(C(F)(F)F)cc3)C(=O)N(C)CC(=O)N[C@@H](CCc3cc(F)c(C(F)(F)F)c(F)c3)C(=O)N2C1 [PP1275, (2S,8S,12R,14S,20S,23S,27S,30S,36S,38Z)-20-cyclopentyl-8-[2-[3,5-difluoro-4-(trifluoromethyl)phenyl]ethyl]-12-ethoxy-27-ethyl-N,N,3′,3′,4,19,22,26,32,35-decamethyl-30-[(1S)-1-methylpropyl]-3,6,9,15,18,21,25,28,31,34,42-undecaoxo-2-[[4-(trifluoromethyl)phenyl]methyl]spiro[1,4,7,10,16,19,22,26,29,32,35-undecazatricyclo[34.5.1.0^10,14]dotetracont-38-ene-17,1′-cyclobutane]-23-carboxamide] | 4.9 nM | A (a compound having 10 or more and less than 20 is denoted as A) | 0.047 nM | A (a compound having 10 or more and less than 20 is denoted as A)
CCO[C@@H]1C[C@H]2C(=O)NC3(CCCC3)C(=O)N(C)[C@@H](C3CCCC3)C(=O)N(C)[C@H](C(=O)N(C)C)CC(=O)N(C)[C@@H](CC)C(=O)N[C@@H]([C@@H](C)CC)C(=O)N(C)CC(=O)N(C)[C@H]3C/C=C\CCN(C3=O)[C@@H](Cc3ccc(C(F)(F)F)cc3)C(=O)N(C)CC(=O)N[C@@H](CCc3cc(F)c(C(F)(F)F)c(F)c3)C(=O)N2C1 [PP1276, (2S,8S,12R,14S,20S,23S,27S,30S,36S,38Z)-20-cyclopentyl-8-[2-[3,5-difluoro-4-(trifluoromethyl)phenyl]ethyl]-12-ethoxy-27-ethyl-N,N,4,19,22,26,32,35-octamethyl-30-[(1S)-1-methylpropyl]-3,6,9,15,18,21,25,28,31,34,42-undecaoxo-2-[[4-(trifluoromethyl)phenyl]methyl]spiro[1,4,7,10,16,19,22,26,29,32,35-undecazatricyclo[34.5.1.0^10,14]dotetracont-38-ene-17,1′-cyclopentane]-23-carboxamide] | 20.8 nM | B (a compound having 3 or more and less than 10 is denoted as B) | 0.066 nM | A (a compound having 10 or more and less than 20 is denoted as A)
CCO[C@@H]1C[C@H]2C(=O)NC3(CCCCC3)C(=O)N(C)[C@@H](C3CCCC3)C(=O)N(C)[C@H](C(=O)N(C)C)CC(=O)N(C)[C@@H](CC)C(=O)N[C@@H]([C@@H](C)CC)C(=O)N(C)CC(=O)N(C)[C@H]3C/C=C\CCN(C3=O)[C@@H](Cc3ccc(C(F)(F)F)cc3)C(=O)N(C)CC(=O)N[C@@H](CCc3cc(F)c(C(F)(F)F)c(F)c3)C(=O)N2C1 [PP1277] | 79.8 nM | A (a compound having 10 or more and less than 20 is denoted as A) | 0.25 nM | A (a compound having 10 or more and less than 20 is denoted as A)
CCO[C@@H]1C[C@H]2C(=O)NC3(COC3)C(=O)N(C)[C@@H](C3CCCC3)C(=O)N(C)[C@H](C(=O)N(C)C)CC(=O)N(C)[C@@H](CC)C(=O)N[C@@H]([C@@H](C)CC)C(=O)N(C)CC(=O)N(C)[C@H]3C/C=C\CCN(C3=O)[C@@H](Cc3ccc(C(F)(F)F)cc3)C(=O)N(C)CC(=O)N[C@@H](CCc3cc(F)c(C(F)(F)F)c(F)c3)C(=O)N2C1 [PP1278, (2S,8S,12R,14S,20S,23S,27S,30S,36S,38Z)-20-cyclopentyl-8-[2-[3,5-difluoro-4-(trifluoromethyl)phenyl]ethyl]-12-ethoxy-27-ethyl-N,N,4,19,22,26,32,35-octamethyl-30-[(1S)-1-methylpropyl]-3,6,9,15,18,21,25,28,31,34,42-undecaoxo-2-[[4-(trifluoromethyl)phenyl]methyl]spiro[1,4,7,10,16,19,22,26,29,32,35-undecazatricyclo[34.5.1.0^10,14]dotetracont-38-ene-17,3′-oxetane]-23-carboxamide] | 45.7 nM | B (a compound having 3 or more and less than 10 is denoted as B) | 0.14 nM | A (a compound having 10 or more and less than 20 is denoted as A)
CCO[C@@H]1C[C@H]2C(=O)NC3(CCOCC3)C(=O)N(C)[C@@H](C3CCCC3)C(=O)N(C)[C@H](C(=O)N(C)C)CC(=O)N(C)[C@@H](CC)C(=O)N[C@@H]([C@@H](C)CC)C(=O)N(C)CC(=O)N(C)[C@H]3C/C=C\CCN(C3=O)[C@@H](Cc3ccc(C(F)(F)F)cc3)C(=O)N(C)CC(=O)N[C@@H](CCc3cc(F)c(C(F)(F)F)c(F)c3)C(=O)N2C1 [PP1279] | 72.6 nM | A (a compound having 10 or more and less than 20 is denoted as A) | 0.27 nM | A (a compound having 10 or more and less than 20 is denoted as A)
CCO[C@@H]1C[C@H]2C(=O)NC(C)(C)C(=O)N(C)[C@@H](C3CCCC3)C(=O)N(C)[C@H](C(=O)N(C)C)CC(=O)N(C)[C@@H](CC)C(=O)N[C@@H]([C@@H](C)CC)C(=O)N(C)CC(=O)N(C)[C@H]3C/C=C\CCN(C3=O)[C@@H](Cc3ccc(C(F)(F)F)cc3)C(=O)N(C)CC(=O)N[C@@H](CCc3cc(F)c(C(F)(F)F)c(F)c3)C(=O)N2C1 [PP1280] | 34.4 nM | A (a compound having 10 or more and less than 20 is denoted as A) | 0.15 nM | A (a compound having 10 or more and less than 20 is denoted as A)
CCO[C@@H]1C[C@H]2C(=O)NC3(CCC3)C(=O)N(C)[C@@H](C3CCCC3)C(=O)N(C)[C@H](C(=O)N3CCOCC3)CC(=O)N(C)[C@@H](CC)C(=O)N[C@@H]([C@@H](C)CC)C(=O)N(C)CC(=O)N(C)[C@H]3C/C=C\CCN(C3=O)[C@@H](Cc3ccc(C(F)(F)F)cc3)C(=O)N(C)CC(=O)N[C@@H](CCc3ccc(C(F)(F)F)c(Cl)c3)C(=O)N2C1 [PP1281, (2S,8S,12R,14S,20S,23S,27S,30S,36S,38Z)-8-[2-[3-chloro-4-(trifluoromethyl)phenyl]ethyl]-20-cyclopentyl-12-ethoxy-27-ethyl-4,19,22,26,32,35-hexamethyl-30-[(1S)-1-methylpropyl]-23-(morpholine-4-carbonyl)-2-[[4-(trifluoromethyl)phenyl]methyl]spiro[1,4,7,10,16,19,22,26,29,32,35-undecazatricyclo[34.5.1.0^10,14]dotetracont-38-ene-17,1′-cyclobutane]-3,6,9,15,18,21,25,28,31,34,42-undecone] | 10.2 nM | A (a compound having 10 or more and less than 20 is denoted as A) | 0.14 nM | AA (a compound having 20 or more is denoted as AA)
